According to patent US20230219912A1, “HALOGENATED BENZOTHIADIAZINES FOR THE TREATMENT OF CANCER” (BOARD OF REGENTS OF THE UNIVERSITY OF NEBRASKA, priority 2020, published 2023):
“Also recorded” adds a separate entry of the source.

Tests used:
[1] = test system: MDA-MB-468 triple negative breast cancer cells; assay: MTS cytotoxicity assay in MDA-MB-468 triple negative breast cancer cells; format: cell-based; conditions: Homo sapiens, MDA-MB-468; 72 hours; mean ± SD n = 3
Description: The assay was performed as follows.
Derivatives were dosed at 10, 50 and 100 μM for 24, 48 and 72 hours and cell viability measured by MTS assay (FIG. 5).

[2] = test system: VEGF-induced proliferation of HUVEC cells; assay: VEGF-induced HUVEC proliferation, MTT assay; format: cell-based, human; conditions: VEGF 10 ng/mL
How it was run: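 HUVECs starved 24 h in 0.1% BSA/0.1% FBS basal medium, then treated 48 h with VEGF (10 ng/mL) alone or with compounds at 20 μM (DMSO <1%). Proliferation by MTT (2 h, 37° C), formazan dissolved in acidified isopropanol, absorbance at 570 nm.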

[3] = test system: human embryonic kidney (HEK293) cells; assay: MTS cytotoxicity assay in HEK293 cells; format: cell-based; conditions: 72 hours, mean ± SD n = 3
Description: The assay was performed as follows. To determine the cell growth inhibition ability of the synthesized compounds the (3-(4,5-dimethylthiazol-2-yl)-5-(3-carboxymethoxyphenyl)-2-(4-sulfophenyl)-2H-tetrazolium) (MTS) assay used according to the manufacturer's recommended protocol. Stock solutions of the synthesized compounds were prepared in DMSO. Cells were seeded at a density of 1×10^5 cells in 96-well plates. After 24 hours, cells were treated at the indicated concentrations of test compounds, limiting the final DMSO concentration to less than 1%. After incubation at 37° C. in an environment of 5% CO2 for 48-72 hours, 10 μL of MTS reagent (CellTiter 96© AQueous One Solution Reagent) was added to each well and incubated at the above mentioned conditions for 2-4 hr. Absorbance was recorded at 490 nm on a BioTek Synergy Mx multimode plate reader and the viability of cells were plotted as percentage of controls.
Cytotoxicity was also evaluated by using the low tumorigenic HEK293 cells at 50 μM concentration.

[4] = test system: phosphorylated vascular endothelial growth factor receptor-2 (VEGFR2); assay: Western blot of pVEGFR2 in VEGF-treated HUVEC cells; format: cell-based, human; conditions: 20 μM, VEGF 10 ng/mL, 5 min
Description: Cells were treated with test compounds (20 μM) along with VEGF (10 ng/mL) for 5 min. The DMSO was used as a negative control, whereas DMSO+VEGF was used as a positive control. Cells were lysed using RIPA buffer (10 mmol/L Tris-HCl, 1 mmol/L EDTA, 0.5 mmol/L EGTA, 1% Triton X-100, 0.1% sodium deoxycholate, 0.1% SDS and 140 mmol/L NaCl), supplemented with protease and phosphatase inhibitors (Halt Protease and Phosphatase Inhibitor). Cell lysates were centrifuged, and the supernatants were mixed with appropriate amount of 5×SDS loading buffer. Proteins were resolved on polyacrylamide gel and transferred onto nitrocellulose/PVDF membrane, blocked for 1 hour with 10% milk block prepared in 0.1% Tween 20 in 1×PBS (PBST), and treated with pVEGFR2 primary antibody at 4° C. overnight. The membrane was washed thrice with PBST, 5 minutes each, and treated with secondary antibody for 1 hour. The membrane was further washed three times, 5 minutes each, with PBST and developed using chemiluminescence, and the bands were analyzed using densitometry.

`O=S1(=O)N=C(NCc2ccc(OC(F)(F)F)cc2)Nc2cc(Cl)ccc21` [Compound 30b, 6-chloro-3-((4-(trifluoromethoxy)benzyl)amino)-4H-benzo[e][1,2,4]thiadiazine 1,1-dioxide] was tested, and the IC50 [1] was 48 µM, the “inhibition of VEGF-induced HUVEC proliferation (in words)” value ([2]; 20 μM) was “suppressed HUVEC proliferation; also recorded: enhanced activity” and the inhibition at 20 µM ([2]; Homo sapiens, HUVEC, 48 h, 20 μM compound, HUVEC, 48 h, relative to VEGF treated cells, mean ± SEM n = 3, read-out: % Inhibition of Proliferation) was 196 ± 11%. The IC50 [3] was 77.2 µM and the “attenuation of pVEGFR2 expression” value [4] was “outperformed the parent compound; also recorded: most potent”.
